{"source": "patent US6534530B1", "about": "“Antipicornaviral compounds and compositions, their pharmaceutical uses, and materials for their synthesis” (Agouron Pharmaceuticals, Inc., priority 1999, dated 2003)", "key": {"HRV-14": {"system": "HRV-14", "test": "Antirhinoviral H1-HeLa cell culture assay (XTT), HRV-14", "type": "cell-based, human rhinovirus", "settings": "Rhinovirus B, HRV14, HRV-14, H1-HeLa cells"}, "[1]": {"target": "T1, recombinant rhinovirus 3C protease, serotype 14 (Human rhinovirus 14, UniProt P03303)", "T1 construct": "Recombinant rhinovirus 3C proteases; made in house", "T1 sequence (P03303 1538-1719)": "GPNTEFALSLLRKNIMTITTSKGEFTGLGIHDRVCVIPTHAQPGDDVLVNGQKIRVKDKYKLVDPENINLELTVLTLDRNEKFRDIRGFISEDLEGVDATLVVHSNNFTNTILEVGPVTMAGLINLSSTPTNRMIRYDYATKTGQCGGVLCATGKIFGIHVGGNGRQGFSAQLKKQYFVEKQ", "test": "Inhibition of rhinovirus 3C protease (FRET assay), serotype 14", "type": "biochemical", "procedure": "(§1) Stock solutions (50 mM, in DMSO) of various compounds were prepared; dilutions were in the same solvent. Recombinant rhinovirus 3C proteases (see Birch et al., “Purification of recombinant human rhinovirus 14 3C protease expressed in Escherichia coli,” Protein Expr. Pur. (1995), vol. 6(5), 609-618) from serotypes 14, 16, and 2 were prepared by the following standard chromatographic procedures: (1) ion exchange using Q Sepharose Fast Flow from Pharmacia; (2) affinity chromatography using Affi-Gel Blue from Biorad; and (3) sizing using Sephadex G-100 from Pharmacia. Each assay sample contained 2% DMSO, 50 mM tris pH 7.6, 1 mM EDTA, a test compound at the indicated concentration, approximately 1 μM substrate, and 50-100 nM protease. The kobs/I values were obtained from reactions initiated by addition of enzyme rather than substrate. RVP activity was measured in the fluorescence resonance energy transfer assay. The substrate was (N-terminal) DABCYL-([…]-EDANS. In the uncleaved peptide, the EDANS fluorescence was quenched by the proximal DABCYL moiety. When the peptide was cleaved, the quenching was relieved, and activity was measured as an increase in fluorescence signal. The tabulated data in the column designated kobs/[I] were measured from progress curves in enzyme start experiments."}, "HRV-16": {"system": "HRV-16", "test": "Antirhinoviral H1-HeLa cell culture assay (XTT), HRV-16", "type": "cell-based", "settings": "Human rhinovirus sp., HRV16, HRV-16, H1-HeLa cells", "source_text": "(§2) (1989), vol. 81, 577-586."}, "[2]": {"target": "T2, recombinant rhinovirus 3C protease, serotype 2 (Human rhinovirus 2, UniProt P04936)", "T2 construct": "Recombinant rhinovirus 3C proteases; made in house", "T2 sequence (P04936 1508-1690)": "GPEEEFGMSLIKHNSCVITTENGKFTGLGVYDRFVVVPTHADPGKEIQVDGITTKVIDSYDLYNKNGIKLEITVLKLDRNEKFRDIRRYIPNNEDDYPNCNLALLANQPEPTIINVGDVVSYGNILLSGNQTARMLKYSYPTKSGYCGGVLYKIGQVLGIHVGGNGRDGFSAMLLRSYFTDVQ", "test": "Inhibition of rhinovirus 3C protease (FRET assay), serotype 2", "type": "biochemical", "settings": "HRV-2 3C protease", "procedure": "as §1"}, "[3]": {"target": "T3, rhinovirus 3C protease, HRV-89 (Human rhinovirus A serotype 89, UniProt P07210)", "T3 construct": "Recombinant rhinovirus 3C proteases", "T3 sequence (P07210 1522-1704)": "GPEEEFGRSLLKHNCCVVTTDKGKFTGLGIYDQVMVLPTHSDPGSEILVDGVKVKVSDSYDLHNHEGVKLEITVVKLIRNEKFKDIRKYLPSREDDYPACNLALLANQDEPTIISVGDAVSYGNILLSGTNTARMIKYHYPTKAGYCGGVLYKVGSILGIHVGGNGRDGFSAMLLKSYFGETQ", "test": "Inhibition of rhinovirus 3C protease (FRET assay), serotype 89", "type": "biochemical, human rhinovirus 89", "settings": "HRV-89 3C protease"}, "[4]": {"target": "T4, recombinant rhinovirus 3C protease, serotype 16 (Human rhinovirus 16, UniProt Q82122)", "T4 construct": "Recombinant rhinovirus 3C proteases; made in house", "T4 sequence (Q82122 1511-1693)": "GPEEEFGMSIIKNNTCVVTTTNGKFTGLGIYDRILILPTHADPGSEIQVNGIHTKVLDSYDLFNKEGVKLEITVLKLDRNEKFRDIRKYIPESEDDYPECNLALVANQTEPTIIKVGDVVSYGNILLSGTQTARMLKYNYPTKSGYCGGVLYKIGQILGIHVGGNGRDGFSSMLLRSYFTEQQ", "test": "Inhibition of rhinovirus 3C protease (FRET assay), serotype 16", "type": "biochemical", "settings": "HRV-16 3C protease", "procedure": "as §1"}, "in vitro": {"test": "in vitro", "settings": "human, mock-infected H1-HeLa cells"}, "HRV-89": {"system": "HRV-89", "test": "Antirhinoviral H1-HeLa cell culture assay (XTT), HRV-89", "type": "cell-based, human rhinovirus", "settings": "Rhinovirus A, HRV89, HRV-89, H1-HeLa cells", "source_text": "as §2"}, "H1-HeLa cells": {"system": "H1-HeLa cells", "test": "Cytotoxicity in mock-infected H1-HeLa cells (antirhinoviral assay, XTT)", "settings": "HRV-89 row"}, "HRV-1A": {"system": "HRV-1A", "test": "Antirhinoviral H1-HeLa cell culture assay (XTT), HRV-1A", "type": "cell-based, human rhinovirus", "settings": "Rhinovirus A, HRV1A, H1-HeLa cells", "source_text": "as §2"}, "[5]": {"test": "Cytotoxicity in uninfected MRC-5 cells (anti-echoviral assay, XTT)", "type": "cell-based", "settings": "human, ECHO-11 row", "procedure": "(§3) Echovirus type 11 (ECHO 11) was purchased from ATCC (Rockville, Md.). Virus stocks were propagated and antiviral assays were performed in MRC-5 cells (ATCC)."}, "CAV-21": {"system": "CAV-21", "test": "Anticoxsackieviral cell culture assay (XTT), CAV-21", "type": "cell-based, coxsackievirus A21", "settings": "Enterovirus C, 48 h; CAV-21, H1-HeLa cells, m.o.i. 0.025, two days"}, "HRV-10": {"system": "HRV-10", "test": "Antirhinoviral H1-HeLa cell culture assay (XTT), HRV-10", "type": "cell-based", "settings": "Human rhinovirus sp., HRV10, HRV-10, H1-HeLa cells", "source_text": "as §2"}, "ECHO 11": {"system": "ECHO 11", "test": "Anti-echoviral cell culture assay (XTT), ECHO 11 in MRC-5 cells", "type": "cell-based, echovirus 11", "settings": "Enterovirus B, MRC5, 96 h; ECHO-11, MRC-5 cells, four days", "procedure": "as §3"}, "[6]": {"test": "Cytotoxicity in uninfected H1-HeLa cells (anticoxsackieviral assay, XTT)", "type": "cell-based", "settings": "human"}, "CVB3": {"system": "CVB3", "test": "Anticoxsackieviral cell culture assay (XTT), CVB3", "type": "cell-based, coxsackievirus B3", "settings": "Enterovirus B, 24 h; CVB3, H1-HeLa cells, m.o.i. 0.075, one day"}}, "note": "pEC50, pKi: −log10 of the molar value.", "data": [{"smiles": "CC(=O)NC[C@H](NC(=O)[C@H](Cc1ccccc1)NC(=O)[C@H](CC(C)C)NC(=O)OCc1ccccc1)C(=O)c1nc2ccccc2s1", "note": "[Compound 9, Cbz-L-Leu-L-Phe-L-(N-Ac-amino-Ala)-2-Benzthiazole]", "values": [{"measurement": "pEC50", "setting": "HRV-14", "result": "< 4.60"}, {"measurement": "pKi", "setting": "[1]", "result": 5.77}, {"measurement": "pEC50", "setting": "HRV-16", "result": "< 4.60"}, {"measurement": "pKi", "setting": "[2]", "result": 6.05}, {"measurement": "pKi", "setting": "[3]", "result": 6.32}, {"measurement": "pKi", "setting": "[4]", "result": 6.51}, {"measurement": "CC50 at 2 days", "setting": "in vitro", "result": 25000, "unit": "nM"}]}, {"smiles": "C#CC(=O)[C@H](CNC(C)=O)NC(=O)[C@H](Cc1ccccc1)NC(=O)[C@H](CC(C)C)NC(=O)OCc1ccccc1", "note": "[Compound 14, Cbz-L-Leu-L-Phe-L-(N-Ac-amino-Ala)-C≡CH]", "values": [{"measurement": "pEC50", "setting": "HRV-14", "result": "< 4.00"}, {"measurement": "pKi", "setting": "[1]", "result": 7.19}, {"measurement": "pEC50", "setting": "HRV-89", "result": "< 4.00"}, {"measurement": "CC50", "setting": "H1-HeLa cells", "result": "> 100000", "unit": "nM"}, {"measurement": "pKi", "setting": "[2]", "result": 6.91}, {"measurement": "pKi", "setting": "[3]", "result": 6.12}, {"measurement": "pKi", "setting": "[4]", "result": 6.49}, {"measurement": "CC50 at 2 days", "setting": "in vitro", "result": "> 100000", "unit": "nM"}]}, {"smiles": "CC(C)C[C@H](NC(=O)OCc1ccccc1)C(=O)N[C@@H](Cc1ccccc1)C(=O)N[C@@H](C[C@@H]1CCNC1=O)C(=O)c1nc2ccccc2s1", "note": "[Compound 21, Cbz-L-Leu-L-Phe-L-[(S)-Pyrrol-Ala]-2-Benzthiazole]", "values": [{"measurement": "pEC50", "setting": "HRV-14", "result": 5.49}, {"measurement": "pKi", "setting": "[1]", "result": 7.19}, {"measurement": "melting point", "result": "108 to 111", "unit": "°C"}, {"measurement": "CC50 at 2 days", "setting": "in vitro", "result": "> 320000", "unit": "nM"}]}, {"smiles": "CC(C)C[C@H](NC(=O)OCc1ccccc1)C(=O)N[C@@H](Cc1ccccc1)C(=O)N[C@@H](C[C@@H]1CCNC1=O)C(=O)c1nccs1", "note": "[Compound 22, Cbz-L-Leu-L-Phe-L-[(S)-Pyrrol-Ala]-2-Thiazole]", "values": [{"measurement": "pEC50", "setting": "HRV-14", "result": 5.10}, {"measurement": "pKi", "setting": "[1]", "result": 6.15}, {"measurement": "melting point", "result": "83 to 85", "unit": "°C"}, {"measurement": "CC50 at 2 days", "setting": "in vitro", "result": 240000, "unit": "nM"}]}, {"smiles": "Cc1cc(C(=O)N[C@H](C(=O)N[C@@H](Cc2ccc(F)cc2)C(=O)N[C@@H](C[C@@H]2CCNC2=O)C(=O)c2nc3ccccc3s2)C(C)C)no1", "note": "[Compound 28, (5-Methylisoxazole-3-carboxyl)-L-Val-L-Phe(4-F)-L-[(S)-Pyrrol-Ala]-2-Benzthiazole]", "values": [{"measurement": "pEC50", "setting": "HRV-1A", "result": 6.47}, {"measurement": "pEC50", "setting": "HRV-14", "result": 6.47}, {"measurement": "pKi", "setting": "[1]", "result": 8.35}, {"measurement": "CC50 at 4 days", "setting": "[5]", "result": 251000, "unit": "nM"}, {"measurement": "pEC50", "setting": "CAV-21", "result": 5.33}, {"measurement": "pEC50", "setting": "HRV-10", "result": 6.60}, {"measurement": "CC50 at 2 days", "setting": "in vitro", "result": 251000, "unit": "nM"}, {"measurement": "pEC50", "setting": "ECHO 11", "result": 6.09}, {"measurement": "CC50 at 2 days", "setting": "[6]; CAV-21", "result": 251000, "unit": "nM"}, {"measurement": "CC50 at 1 day", "setting": "[6]; CVB3", "result": 251000, "unit": "nM"}, {"measurement": "pEC50", "setting": "CVB3", "result": 5.24}]}]}
